≈ marks a conversion by molar mass, not a printed value. Like-named read-outs stand apart in the source and are kept apart here.
What was measured:
Assay type in all cases: cell-based
[1] = test system: Salmonella enterica subsp. enterica typhimurium; assay: MIC, 20-strain panel
Procedure, shortened: (§1)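 Each of the 20 strains is tested in LB at a 1:10000 dilution of a growing subculture. Compound is titrated 2-fold in three replicates; a DMSO column serves as vehicle control. After shaking incubation at 37° C. for 16-18 hours, MIC is taken as the lowest clear concentration.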

[2] = test system: Streptococcus pyogenes; assay: MIC, 20-strain panel
Procedure, shortened: as §1

[3] = test system: E. coli JW5503 (deltolC); assay: MIC, 20-strain panel; details: Escherichia coli
Procedure, shortened: as §1

[4] = test system: Streptococcus agalactiae; assay: MIC, 20-strain panel
Procedure, shortened: as §1

[5] = test system: Shigella flexneri; assay: MIC, 20-strain panel
Procedure, shortened: as §1

[6] = test system: E. coli MG1655; assay: MIC, 20-strain panel; details: Escherichia coli, read-out: MIC
Procedure, shortened: as §1

[7] = test system: Staphylococcus aureus subsp. aureus; assay: MIC, 20-strain panel; details: read-out: MIC
Procedure, shortened: as §1

[8] = test system: Staphylococcus saprophyticus subsp. saprophyticus; assay: MIC, 20-strain panel
Procedure, shortened: as §1

[9] = test system: Klebsiella pneumoniae subsp. pneumoniae; assay: MIC, 20-strain panel
Procedure, shortened: as §1

[10] = test system: Staphylococcus epidermidis; assay: MIC, 20-strain panel
Procedure, shortened: as §1

[11] = test system: E. coli BW25113; assay: MIC, microdilution in 96-well plates; details: Escherichia coli, read-out: MIC
Procedure, shortened: as §1

[12] = test system: Edwardsiella tarda; assay: MIC, microdilution in 96-well plates
Procedure, shortened: as §1

[13] = Salmonella enterica subsp. enterica Typhimurium
[14] = Staphylococcus aureus subsp. aureus
[15] = Klebsiella pneumoniae subsp. pneumoniae
[16] = F: Salmonella enterica subsp. enterica Typhimurium
[17] = H: Staphylococcus aureus subsp. aureus
[18] = E: Klebsiella pneumoniae subsp. pneumoniae

| Compound | MIC [1, 13] | MIC [2] | MIC ([3]; E. coli JW5503 (deltolC)) | MIC [4] | MIC [5] | MIC ([6]; MG1655, E. coli MG1655) | MIC [7, 14] | MIC [8] | MIC [9, 15] | MIC [10] | MIC ([11]; BW25113, E. coli BW25113) | MIC [12] | MIC [1, 16] | MIC ([3]; C: E. coli JW5503 (deltolC)) | MIC ([5]; G: Shigella flexneri) | MIC ([6]; MG1655, A: E. coli MG1655) | MIC [7, 17] | MIC [9, 18] | MIC ([11]; BW25113, B: E. coli BW25113) | MIC ([12]; D: Edwardsiella tarda) |
| --- | --- | --- | --- | --- | --- | --- | --- | --- | --- | --- | --- | --- | --- | --- | --- | --- | --- | --- | --- | --- |
| CC(=O)c1cccc(S(=O)(=O)N[C@@H]2CCN(Cc3ccc(OC4CC4)cc3)C2)c1 [Compound 134] | ~8 mg/L (≈ 19.3 µM) | > 8 mg/L | 4 mg/L (≈ 9.65 µM) | > 8 mg/L | > 8 mg/L | > 8 mg/L | > 8 mg/L | > 8 mg/L | > 8 mg/L | > 8 mg/L | > 8 mg/L | > 8 mg/L |  |  |  |  |  |  |  |  |
| O=S(=O)(N[C@@H]1CCN(Cc2ccc(OC3CC3)cc2)C1)c1cc(C(F)(F)F)ccc1F [Compound 168] | ~8 mg/L (≈ 17.4 µM) | > 8 mg/L | 0.25 mg/L (≈ 0.545 µM) | > 8 mg/L | ~8 mg/L (≈ 17.4 µM) | > 8 mg/L | > 8 mg/L | > 8 mg/L | > 8 mg/L | > 8 mg/L | > 8 mg/L | > 8 mg/L |  |  |  |  |  |  |  |  |
| N#Cc1cccc(S(=O)(=O)N[C@@H]2CCN(Cc3ccc(-c4cccs4)cc3)C2)c1 [Compound 25] |  | > 8 mg/L |  | > 8 mg/L |  |  |  | > 8 mg/L |  | > 8 mg/L |  |  | 4 mg/L (≈ 9.44 µM) | 0.25 mg/L (≈ 0.59 µM) | > 8 mg/L | ~8 mg/L (≈ 18.9 µM) | > 8 mg/L | > 8 mg/L | ~8 mg/L (≈ 18.9 µM) | > 8 mg/L |
| N#Cc1cccc(S(=O)(=O)N[C@@H]2CCN(Cc3ccc(-c4ccncc4)cc3)C2)c1 [Compound 67] |  | > 8 mg/L |  | > 8 mg/L |  |  |  | > 8 mg/L |  | > 8 mg/L |  |  | > 8 mg/L | 4 mg/L (≈ 9.56 µM) | > 8 mg/L | > 8 mg/L | > 8 mg/L | > 8 mg/L | > 8 mg/L | > 8 mg/L |
| N#Cc1cc(S(=O)(=O)N[C@@H]2CCN(Cc3ccc(OC4CC4)cc3)C2)ccc1Cl [Compound 119] |  | > 8 mg/L |  | > 8 mg/L |  |  |  | > 8 mg/L |  | > 8 mg/L |  |  | > 8 mg/L | > 8 mg/L | > 8 mg/L | > 8 mg/L | > 8 mg/L | > 8 mg/L | > 8 mg/L | > 8 mg/L |
| O=S(=O)(N[C@@H]1CCN(Cc2ccc(-n3cccn3)cc2)C1)c1cccc(C(F)(F)F)c1 [Compound 35] |  | > 8 mg/L |  | > 8 mg/L |  |  |  | > 8 mg/L |  | > 8 mg/L |  |  | > 8 mg/L | 1 mg/L (≈ 2.22 µM) | > 8 mg/L | > 8 mg/L | > 8 mg/L | > 8 mg/L | > 8 mg/L | > 8 mg/L |
| O=S(=O)(N[C@@H]1CCN(Cc2ccc(-c3nccs3)cc2)C1)c1cccc(OC(F)(F)F)c1 [Compound 36] |  | > 8 mg/L |  | > 8 mg/L |  |  |  | > 8 mg/L |  | > 8 mg/L |  |  | > 8 mg/L | 2 mg/L (≈ 4.14 µM) | > 8 mg/L | > 8 mg/L | > 8 mg/L | > 8 mg/L | > 8 mg/L | > 8 mg/L |
| N#Cc1cccc(S(=O)(=O)N[C@@H]2CCN(Cc3cn(-c4ccccc4)nn3)C2)c1 [Compound 124] |  | > 8 mg/L |  | > 8 mg/L |  |  |  | > 8 mg/L |  | > 8 mg/L |  |  | > 8 mg/L | > 8 mg/L | > 8 mg/L | > 8 mg/L | > 8 mg/L | > 8 mg/L | > 8 mg/L | > 8 mg/L |
| CSc1ccc(CN2CC[C@@H](NS(=O)(=O)c3cccc(C(F)(F)F)c3)C2)cc1 [Compound 86] |  | > 8 mg/L |  | > 8 mg/L |  |  |  | > 8 mg/L |  | > 8 mg/L |  |  | > 8 mg/L | 4 mg/L (≈ 9.29 µM) | > 8 mg/L | > 8 mg/L | > 8 mg/L | > 8 mg/L | > 8 mg/L | > 8 mg/L |
| CC(C)Oc1ccc(CN2CC[C@@H](NS(=O)(=O)c3cnccc3Cl)C2)cc1 [Compound 59] |  | > 8 mg/L |  | > 8 mg/L |  |  |  | > 8 mg/L |  | > 8 mg/L |  |  | > 8 mg/L | > 8 mg/L | > 8 mg/L | > 8 mg/L | > 8 mg/L | > 8 mg/L | > 8 mg/L | > 8 mg/L |
| CC(C)(C)Oc1ccc(CN2CC[C@@H](NS(=O)(=O)c3cccc(C#N)c3)C2)cc1 [Compound 13] |  | > 8 mg/L |  | > 8 mg/L |  |  |  | > 8 mg/L |  | > 8 mg/L |  |  | > 8 mg/L | 8 mg/L (≈ 19.3 µM) | > 8 mg/L | > 8 mg/L | > 8 mg/L | > 8 mg/L | > 8 mg/L | > 8 mg/L |

Reference: US10253039B2, “Inhibitors of bacterial DNA gyrase with efficacy against gram-negative bacteria” (priority 2014, dated 2019)
